This assay deals with Primary fibroblasts from donors with Friedreich Ataxia (FRDA). The assay is described as follows: BSO Assay (cell viability under BSO-induced oxidative stress). The assay is classed as cell-based. As to conditions: Homo sapiens, Fibroblast. The protocol: Primary fibroblasts were derived from donors with molecular diagnosis for Friedreich Ataxia (FRDA) and control donors with no mitochondrial disease. Cell lines were obtained from Coriell Cell Repositories (Camden, N.J.; catalog numbers GM04078, GM08402 and GM08399 respectively). All cell types were diagnosed on the molecular level for intronic […] triplet repeat length of at least 400-450 repeats using a PCR-based method. […] Cell viability was measured after the first signs of toxicity appeared in the BSO-treated controls (typically after 16 to 48 h). […] Fluorescence intensity was measured with a Gemini Spectramax XS spectrofluorimeter (Molecular Devices, Sunnyvale, Calif.) using excitation and emission wavelengths of 485 nm and 525 nm respectively.

Each structure is given as a SMILES string.

1 compound from patent US20070293486A1, “Alpha-Keto Carbonyl Calpain Inhibitors” (SANTHERA PHARMACEUTICALS (SCHWEIZ) AG, priority 2004, published 2007) can be followed below.

As a reminder, the EC50 is the midpoint of the concentration-response curve. Higher therefore signals a need for much substance. Compound `CCNC(=O)C(=O)[C@H](Cc1ccc(Cl)cc1)NC(=O)[C@@H](NC(=O)[C@H](Cc1ccccc1)NC(=O)CCCCC1CCS[S+]1[O-])C(C)C` (stereo partly shown) [Example 2] displayed an EC50 of 800 nM.
